“Also recorded” adds a separate entry of the source.
Assays:
Format in all cases: in vivo, rat
high fat diet (HFD) rats = assay: 8-week (56 day) treatment study in high fat diet rats with pair-fed controls (body weight, food intake, adipose tissue, liver TAG, adipokines); settings: for liver triglyceride / triacylglycerol content: 8 weeks, all dose groups; for body weight: HFD rats, 0.625-10 μg/kg/day, 8 weeks (56 days), vs vehicle and pair-fed
Description: To obtain obese rats, male Sprague-Dawley rats aged 12 weeks were placed on a diet consisting of regular rodent chow and a 60 kcal % high-fat diet (no. D12495; Research Diets) for a total of 12 wk. Following the 12 weeks on high fat diet the rats were randomized into treatment groups based on weight.
The second study consisted of the following groups: vehicle, KBP-042 0.625 μg/kg/day, KBP-042 1.25 μg/kg/day, KBP-042 2.5 μg/kg/day, KBP-042 5 μg/kg/day, KBP-042 10 μg/kg/day, pair-fed (calorie restriction) matching the 5 μg/kg/day and pair-fed (calorie restriction) matching the 10 μg/kg/day, to allow assessment of the effect of KBP-042 on bodyweight independent of its effect on food intake.
Throughout the experiment the bodyweight and food intake were monitored, and at termination liver and fat depots were collected for weighing and potential analysis of triglyceride content.
The method is based on Folch et al. At the time of extraction the samples were portioned at 500 mg individually and transferred to glass tubes, followed by the addition of 10 mL 100 μg/mL butylated hydroxytoluene (BHT) in chloroform:methanol 2:1 (v:v), and placed on ice. Each sample was added 150 μL of the internal standard solution. Homogenization was performed using a rotor-stator submersion blender (IKA Ultra-Turrax T25) with the sample tubes submerged in ice-water. The samples were each homogenized for 3×10 seconds with 50 second intervals, where after the homogenate is transferred to 35 mL screw-cap centrifuge tubes. The aggregate was cleaned in 5 mL chloroform:methanol 2:1 in the original glass tube, which was then transferred quantitatively to the homogenate. The homogenate was added 3 mL (0.24 times the total homogenate volume) of 0.73% (w/v) NaCl in MiliQ H2O and mixed, followed by centrifugation at 2800·g for 5 minutes at 4° C., to create a 2-phase system. The lower phase was transferred to a clean 12.5 mL centrifugation tube. The homogenate (the upper phase) was then added 3 mL chloroform:methanol 85:15 and mixed, followed by another centrifugation step. The new lower phase was then isolated and added to the first extract and dried down under nitrogen in a 40° C. water bath, followed by resolubilization in 300 μL chloroform:methanol 2:1. At this point the lipid extracts can be stored at −20° C.
The lipid extracts were fractionated on amino-propyl columns (Phenomenex Strata NH2, product number: 8B-S009-HBJ). The columns were pre-washed with 2×2 mL chloroform:methanol 23:1 (v:v) and left to dry. During fractionation the columns were not allowed to dry. The columns were primed with 2×1 mL hexane followed by application of the lipid extracts. Fraction 1 containing cholesterol esters was eluted with 3 mL Hexane into a clean tube. Fraction 2 containing TAG was eluted using 3 mL hexane:chloroform:ethylacetate 100:5:5 (v:v:v) into a clean tube. Fraction 3 containing DAG, Cholesterol and Ceramide was eluted using 3×2 mL chloroform:methanol 23:1 (v:v) into a new glass. Fraction 4 containing FFA was eluted using 5 mL 2% acetic acid in diethyl ether into a new glass. Fraction 5 containing PL was eluted using 4 mL methanol into a new glass. Fractions 1 and 2 were dried down under nitrogen at 40° C. and re-dissolved in 300 μL chloroform:methanol 95:5 and stored at −20° C. Fraction 4 and half of fraction 5 (fraction 5A) were dried down under nitrogen at 40° C. and re-dissolved in 300 μL chloroform:methanol 2:1 and stored at −20° C. Fraction 3 was equally dried down and re-dissolved in 135 μL chloroform and 67.5 μL isopropanol, transferred to HPLC vials and stored at −20° C. The other half of fraction (fraction 5B) was dried down under nitrogen and re-dissolved in 200 μL chloroform:isopropanol 1:1 (v:v), transferred to HPLC vials and stored at −20° C.
To allow gas chromatographic analysis of the fatty acids they must be converted to the more volatile Fatty Acid Methyl Ester (FAME) form. […]

HFD rats = assay: Oral glucose tolerance test (OGTT)
Source text: Animals were challenged with an oral glucose bolus (2 g/kg) at time=0, and dosed with either KBP-042 or saline at t=−30. FIGS. 12A, 12B and 12C show blood glucose levels during acute OGTT, OGTT after 3 weeks, and OGTT after 7 weeks respectively. FIGS. 12D, 12E and 12F show the area under the curve for acute OGTT, OGTT after 3 weeks, and OGTT after 7 weeks respectively. FIGS. 12G, 12H and 12I show insulin levels during acute OGTT, OGTT after 3 weeks, and OGTT after 7 weeks respectively. FIGS. 12J, 12K and 12L show insulin levels during acute OGTT, OGTT after 3 weeks, and OGTT after 7 weeks respectively expressed as area under the curve. n=10 for all groups except vehicle (n=12). Statistical analysis between groups were performed as a One-way ANOVA followed by Tukey's post-hoc test with the following annotations: *P<0.05, **P<0.01, ***P<0.001 vs. HFD-Vehicle. ††P<0.01, †††P<0.001 vs. Pair-fed 5 μg/kg. ‡‡P<0.01, ‡‡‡P<0.001 vs. Pair-fed 10 μg/kg, Data are expressed as mean±SEM.

[1] = system: insulin resistant HFD rats; assay: Hyperinsulinemic-euglycemic clamp (glucose infusion rate)
Description: As liver fat is known to decrease insulin sensitivity, the effect of KBP-042 on insulin sensitivity was considered using the glucose infusion rate (GIR) in the hyperinsulinemic-euglycemic clamp. For this study ND rats were compared to insulin resistant HFD rats and 5 μg/kg KBP-042 treated HFD rats.
The results are shown in FIG. 13: A) Glucose infusion rate (GIR) at steady state during hyperinsulinemic-euglycemic clamp when blood glucose was clamped at basal levels after 21 days treatment; B) Body weight at hyperinsulinemic-euglycemic clamp experiment day after 21 days of treatment. Statistical analysis between groups was performed as a One-way ANOVA followed by Tukey's post-hoc test with the following annotations: *P<0.05, **P<0.01, ***P<0.001. Data are expressed as mean±SEM.

## AcCSNLSTCVLGKLSQELHKLQTYPRTDVGANAP-NH2 (Ac-CSNLSTCVLGKLSQELHKLQTYPRTDVGANAP-NH2; not fully specified (bridges); cysteine pairing not given here) [KBP-042, calcitonin mimetic with Cys1-Cys7 disulphide bridge]
High fat diet (HFD) rats; 1.25 μg/kg, 2.5 μg/kg, 5 μg/kg and 10 μg/kg, 56 days
  plasma adiponectin levels: significantly increased
High fat diet (HFD) rats; 2.5 μg/kg, 5 μg/kg and 10 μg/kg groups compared to HFD-vehicle
  body weight at day 56: significantly lower
High fat diet (HFD) rats; 2.5 μg/kg, 5 μg/kg and 10 μg/kg, 56 days, calculated from food intake and body weight change, significantly different from pair-fed controls
  food efficiency: drastic reduction
High fat diet (HFD) rats; 10 μg/kg compared to the corresponding pair-fed control, 56 days
  plasma leptin levels: reached statistical significance
High fat diet (HFD) rats; 10 μg/kg, 56 days, vs HFD-Vehicle, pair-fed control not significant
  liver triacylglycerols (TAG): significantly reduced
High fat diet (HFD) rats; 10 μg/kg, 56 days, vs HFD-vehicle
  weight of isolated epididymal white adipose tissue: significantly reduced
High fat diet (HFD) rats; 2.5, 5 and 10 μg/kg, 56 days, vs HFD-vehicle, not seen in pair-fed controls
  weight of isolated perirenal white adipose tissue: significant reduction in size
High fat diet (HFD) rats; 8-week study, compared to vehicle, even in a pair fed experiment
  perirenal fat depot: reduced
High fat diet (HFD) rats; compared to vehicle
  liver triglyceride / triacylglycerol content: trends indicated a dose-dependent effect
High fat diet (HFD) rats; compared to vehicle, listed as KBP peptide
  liver triglyceride / triacylglycerol content: reduced
High fat diet (HFD) rats; compared to vehicle, listed as KBP-peptide
  liver triglyceride / triacylglycerol content: improvement
High fat diet (HFD) rats; 56 days
  fatty acid composition of hepatic TAG: no differences in the relative distribution
  weight of inguinal white adipose tissue: trend towards reducing
High fat diet (HFD) rats; 56 days, all doses
  plasma leptin levels: trend towards reduced levels
High fat diet (HFD) rats
  body weight: dose-dependent and sustained reduction of body weight; also recorded: large reduction in body weight and maintained weight loss for 8 weeks
High fat diet (HFD) rats; listed as KBP-peptide
  body weight: marked weight reduction even when compared to the calorie restricted groups
High fat diet (HFD) rats; first 6 days of treatment, 2.5, 5 and 10 μg/kg, transient
  food intake: large reduction in food intake
HFD rats; 30 minutes after subcutaneous administration (t=0), acute
  blood glucose: hyperglycemic effect
HFD rats; OGTT after 3 weeks, 2.5 μg/kg, 5 μg/kg and 10 μg/kg
  glucose tAUC: significantly lowered
HFD rats; OGTT at week 7, 5 μg/kg and 10 μg/kg
  glucose tolerance (tAUC): improved glucose tolerance
HFD rats; acute OGTT, 10 μg/kg
  glucose total area under the curve (tAUC): significantly increased
HFD rats; acute dose, 10 μg/kg, compared to HFD-Vehicle
  glucose tolerance in OGTT: slightly impaired glucose tolerance
HFD rats; acute, first 60 minutes after glucose administration
  insulin levels during OGTT: reduced
HFD rats; after 3 weeks, all treatment groups except 0.625 μg/kg
  insulin levels during OGTT: lowered
HFD rats; week 7, three highest dose groups, first 60 minutes after glucose administration
  insulin levels during OGTT: drastically reduced
[1]; 5 μg/kg, 21 days, HFD rats
  body weight reduction: ~18%
[1]; 5 μg/kg, 21 days, p<0.001
  increase in glucose infusion rate (GIR) compared to HFD-Vehicle: 82%
[1]; 5 μg/kg, 21 days, p<0.05
  increase in GIR compared to ND: 27%
[1]; 5 μg/kg, end of study (21 days)
  body weight compared to ND rats: not significantly different
[1]; hyperinsulinemic-euglycemic clamp
  whole-body insulin sensitivity: improved
